Results on 8 compounds are retold here after ChEMBL document CHEMBL1201862, “PubChem BioAssay data set” (2004).

Test systems include HCT-15; SK-MEL-28; KM12; HCC 2998; PC-3; COLO 205; SR; A549; SK-OV-3; SW-620; SK-MEL-5; M14; DU-145; MDA-N; UO-31; MOLT-4; SK-MEL-2; NCI-H460; NCI-H23.
Common to all, as to experiment: DTP human tumour cell line panel, 48 h

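How tested: cells in 96-well plates exposed to compound for 48 hours at five concentrations. At the GI50, growth is halved.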 Calls of active or inactive are those of the source. No stated cut-off is given here; in the data, active = GI50 up to about 1.1 µM and inactive = higher.

One may read the GI50 as the concentration at which growth is held to half of that of the control. For the compound `COC1C(OC(N)=O)C(O)C(Oc2ccc3c(O)c(NC(=O)c4ccc(O)c(CC=C(C)C)c4)c(=O)oc3c2C)OC1(C)C` (configuration not stated), the GI50 is 60.5 µM with HCT-15; 73.8 µM (inactive) in the assay on SK-MEL-28; 63 µM (inactive) in the assay on KM12; 47.5 µM (inactive) in the assay with HCC 2998; > 100 µM (inactive) in the assay on PC-3; > 100 µM (inactive) in the assay with COLO 205. Besides, the GI50 in the assay with SR was 18.4 µM (inactive); in the assay on A549 it was > 100 µM (inactive); in the assay with SK-OV-3, > 100 µM (inactive); in the assay on SW-620, > 100 µM (inactive); in the assay with SK-MEL-5 it was > 100 µM (inactive); with M14 it was > 100 µM (inactive). Also, the GI50 was > 100 µM (inactive) in the assay on DU-145; > 100 µM (inactive) in the assay on MDA-N; > 100 µM (inactive) in the assay on UO-31; 48 µM (inactive) in the assay on MOLT-4; > 100 µM (inactive) in the assay on SK-MEL-2; 62.2 µM (inactive) in the assay with NCI-H460.
`Nc1nc2c(c(-c3ccccc3Cl)n1)COC/C2=C\c1ccccc1Cl`: the GI50 was 17.1 µM (inactive) in the assay on NCI-H23; 15.9 µM in the assay with HCT-15; 17.9 µM (inactive) in the assay with KM12; 19.5 µM (inactive) with HCC 2998; 14.3 µM (inactive) in the assay with PC-3; 16.3 µM (inactive) with COLO 205. The GI50 with SR is 5.16 µM (inactive); in the assay on SK-OV-3 it was 16.1 µM (inactive); with SW-620 it was 16.6 µM (inactive); in the assay on SK-MEL-5, 16.4 µM (inactive); in the assay with M14, 15.7 µM (inactive); in the assay on DU-145 it was 16.9 µM (inactive). Also, the GI50 in the assay with MDA-N is 10.9 µM (inactive); with UO-31, 17.1 µM (inactive); with MOLT-4, 12.9 µM (inactive); in the assay with SK-MEL-2 it was 16.9 µM (inactive); in the assay on NCI-H460, 18.6 µM (inactive).
As for `COc1cc(OC)c(C2(c3c(OC(C)C)c(=O)c3=O)SCCCS2)cc1OC`, the GI50 in the assay with NCI-H23 is > 100 µM (inactive); in the assay on HCT-15 it was greater than 100 µM; with SK-MEL-28, > 100 µM (inactive); with KM12 it was > 100 µM (inactive); with HCC 2998 it was > 100 µM (inactive); in the assay on PC-3, > 100 µM (inactive). The GI50 in the assay with COLO 205, with SR, in the assay with A549, in the assay with SK-OV-3, in the assay with SW-620 and with SK-MEL-5 was > 100 µM (inactive) each time. In addition, the GI50 in the assay on M14, in the assay on DU-145, in the assay on MDA-N, in the assay on UO-31, in the assay with SK-MEL-2 and in the assay on NCI-H460 was > 100 µM (inactive) in each case.
Turning to `O=C(O)c1cc(C(=O)O)cc(N2C(=O)c3ccccc3C2=O)c1`, the GI50 with NCI-H23 is > 100 µM (inactive); with HCT-15, greater than 100 µM; with SK-MEL-28, > 100 µM (inactive); with KM12, > 100 µM (inactive); in the assay with HCC 2998 it was > 100 µM (inactive); in the assay with PC-3, > 100 µM (inactive). The GI50 in the assay with COLO 205, with SR, in the assay on A549, with SK-OV-3, in the assay on SW-620 and with SK-MEL-5 was > 100 µM (inactive) each time. The GI50 in the assay on M14, with DU-145, in the assay on MDA-N, with UO-31, in the assay on SK-MEL-2 and in the assay on NCI-H460 was > 100 µM (inactive) each time.
Turning to `COc1ccc(C2=C(N)c3ccccc3C2=O)cc1`, the GI50 in the assay on NCI-H23 was 39.5 µM (inactive); with HCT-15, greater than 100 µM; in the assay with SK-MEL-28, > 100 µM (inactive); with KM12, > 100 µM (inactive); with HCC 2998, > 100 µM (inactive); in the assay with PC-3, > 100 µM (inactive). For the same compound, the GI50 is > 100 µM (inactive) in the assay on COLO 205; > 100 µM (inactive) with SR; > 100 µM (inactive) in the assay on A549; 43 µM (inactive) in the assay with SK-OV-3; > 100 µM (inactive) in the assay with SW-620; > 100 µM (inactive) with SK-MEL-5. The GI50 with M14, in the assay on DU-145, in the assay with MDA-N, in the assay on MOLT-4, in the assay with SK-MEL-2 and in the assay on NCI-H460 was > 100 µM (inactive) in each case.
Turning to `OCCn1cnc2c(SCc3ccccc3)ncnc21`, the GI50 with NCI-H23 is > 100 µM (inactive); in the assay on HCT-15, 11.9 µM; in the assay with SK-MEL-28 it was > 100 µM (inactive); with KM12 it was > 100 µM (inactive); in the assay on HCC 2998, > 100 µM (inactive); with PC-3, 61 µM (inactive). Besides, the GI50 in the assay on COLO 205 is 95.5 µM (inactive); with SR, 19.5 µM (inactive); in the assay on A549 it was > 100 µM (inactive); in the assay on SK-OV-3, > 100 µM (inactive); in the assay with SW-620 it was > 100 µM (inactive); in the assay with SK-MEL-5 it was > 100 µM (inactive). Moreover, the GI50 was > 100 µM (inactive) in the assay with M14; > 100 µM (inactive) with DU-145; > 100 µM (inactive) in the assay with MDA-N; > 100 µM (inactive) in the assay on UO-31; > 100 µM (inactive) in the assay with SK-MEL-2; 19.6 µM (inactive) in the assay with NCI-H460.
Regarding `Cc1[nH]c(=O)nc(S)c1C(=O)Nc1cccc2cc3ccccc3cc12`, the GI50 was > 100 µM (inactive) with NCI-H23; greater than 100 µM in the assay with HCT-15; > 100 µM (inactive) with SK-MEL-28; > 100 µM (inactive) in the assay with KM12; > 100 µM (inactive) in the assay on HCC 2998; > 100 µM (inactive) with PC-3. Also, the GI50 in the assay on COLO 205, in the assay with SR, in the assay on SK-OV-3, in the assay on SW-620, in the assay on SK-MEL-5 and in the assay on M14 was > 100 µM (inactive) throughout. For the same compound, the GI50 in the assay with DU-145 was > 100 µM (inactive); in the assay with MDA-N, > 10 µM (inactive); in the assay on UO-31, > 100 µM (inactive); in the assay on MOLT-4, > 100 µM (inactive); in the assay on SK-MEL-2, > 100 µM (inactive); in the assay with NCI-H460, > 100 µM (inactive).
`CC(=O)N1C(C(=O)NC2CCCCC2)CSC1c1ccccc1` (configuration not stated): the GI50 is > 100 µM (inactive) with NCI-H23; greater than 100 µM in the assay with HCT-15; > 100 µM (inactive) with KM12; > 100 µM (inactive) with HCC 2998; > 100 µM (inactive) in the assay on PC-3; > 100 µM (inactive) in the assay with SR. Further, the GI50 in the assay on A549, in the assay on SK-OV-3, with SW-620, with SK-MEL-5, with M14 and in the assay with DU-145 was > 100 µM (inactive) throughout. In addition, the GI50 in the assay on MDA-N, in the assay on UO-31, in the assay with MOLT-4, in the assay on SK-MEL-2 and in the assay with NCI-H460 was > 100 µM (inactive) each time.
